Values quoted from earlier work as cited in US20100047176A1, “Method and Kit for Testing Stress Effects in Living Organisms” (AARHUS UNIVERSITET, priority 2007, published 2010).
Converted amounts (≈) assume the structure as drawn.

Legend:
[1] = at 25° C.
[2] = system: fish and aquatic invertebrates; conditions: if it reaches water bodies

Compound | water solubility [1] [mg/mL] | toxicity to fish / aquatic invertebrates [2]
O=C(O)CNCP(=O)(O)O [Glyphosate] | 11.6 (≈ 68.6 mM) | –
CCC(CC)Nc1c([N+](=O)[O-])cc(C)c(C)c1[N+](=O)[O-] [Pendimethalin] | – | toxic to fish
